The results in this text go back to patent US9393308B2, “Micelle structure of nano preparation for diagnosis or treatment of cancer disease and preparation method thereof” (KOREA ADVANCED INSTITUTE OF SCIENCE AND TECHNOLOGY, priority 2013, dated 2016).

For data set [1], the system named is U251MG, which is a human malignant glioma cell. As to the kind of experiment: Cytotoxicity when light is not irradiated (WST-1, dark room condition). The settings on record: 10 μM or less, 2 h treatment, 24 h additional culture. The data set is classed as cell-based. On the procedure:
In order to evaluate cytotoxicity, U251MG, which is a human malignant glioma cell, was obtained from American Type Culture Collection (ATCC, Manassas, Va., USA). The obtained cell was cultured in a Dulbecco's Modified Eagle's Medium including the nutrient mixture F-12, 10% fetal bovine serum, an antibiotic (penicillin (100 I.U./mL), and streptomycin (100 μg/mL)), and the 0.1 mM MEM non-essential amino acid solution under conditions of 37° C. and 5% carbon dioxide. 5×10^4 cell/well of the cultured cells were dispensed into a 24-well plate, and DMEM/F12 medium (1 mL) was injected four times for each sample. The medium was removed 24 hours after culture, and media respectively including nanopreparations prepared in Example 1 and Comparative Examples 2 and 3 in concentrations of 1.0, 2.5, 5.0, and 10 μM were injected. In this case, the volume of the nanopreparations included in the injected medium was set not to exceed 1.0% of the total volume of the medium. […] Then, absorbance of the culture medium was measured at the wavelength of 450 nm by using an absorbance microplate reader. In this case, the aforementioned whole procedure was performed at a dark room condition, and cell viability was derived from the measured normalized absorbance.
In general terms: Formazan colour is commonly taken as a measure of viable cells.

The test system is the same in data set [2]. The experiment in a line: Light induced cytotoxicity by light irradiation (590 to 605 nm, 0.1 J/cm^2). The settings on record: light 590 to 605 nm, 5 mW/cm^2, 0.1 J/cm^2, 12 hours culture. In kind it is cell-based. On the procedure: 1×10^4 cell/well of U251MG, which is a human malignant glioma cell, were dispensed into a 96-well plate, and a DMEM/F12 medium (100 μL) was injected four times for each sample. 24 hours after culture, the medium was replaced with media respectively including the nanopreparations prepared in Example 1 and Comparative Examples 2 and 3 (sample treatment group) and a medium without the nanopreparation (non-treatment group). The samples were cultured at the dark room condition for 2 hours, washed with phosphate buffered saline (PBS). Then, media was replaced again with media without the nanopreparation. Subsequently, 5 mW/cm^2 of lighting power of light (590 to 605 nm) was irradiated through a light irradiation system (LIS) so that total energy applied to each cell is adjusted to 0.1 J/cm^2 to perform photodynamic diagnosis (photodynamic therapy). Each cell was cultured for 12 hours at the light irradiation condition. The cultured cell was subjected to the same method as Experimental Example 3 to measure light-cytotoxicity. Light induced cytotoxicity and light induced cytotoxicity efficiency were derived from the measured values by using Equations 1 and 2.

Each structure is given as a SMILES string.

Consider `Cc1cc(O)c2c(=O)c3c(O)cc(O)c4c5c(O)cc(O)c6c(=O)c7c(O)cc(C)c8c1c2c(c34)c(c78)c65` [Comparative Example 2, Hypericin], for which the “toxicity to cells when light is not irradiated” value in data set [1] is reported as “do not have toxicity to cells”. The “light toxicity (light induced cytotoxicity efficiency)” value in data set [2] is 1.00±0.04 % mg/A.U. mL.
